{"source": "PubChem BioAssay AID1963985", "about": "(Molecular Pharmacology Branch, DTP, NCI, 2024)", "test_system": "252836-082-R-J2-PDC tumor spheroids, viability", "test": "Anticancer human tumor 252836-082-R-J2-PDC patient-derived head and neck squamous cell carcinoma cell line growth inhibition [PI3K]", "conditions": "spheroids with HUVEC and MSC; for IC50: curve of first compound; for viability, T/C: stronger effect = lower value", "from_the_text": "Combinatorial screen of targeted agents with the PI3K inhibitors inavolisib, alpelisib, duvelisib, and copanlisib in multi-cell type tumor spheroids\nA high-throughput screen of multi-cell type tumor spheroids was designed to identify active combinations of targeted small molecules and PI3K pathway inhibitors. Complex spheroids include a stromal component modeled by human endothelial cells (HUVEC) and fibroblasts modeled by human mesenchymal stem cells (MSCs). The concentration ranges selected for each drug and investigational agent were based upon clinically achievable concentrations if the clinical Cmax of the agent was known.\nCompounds. The drugs and investigational agents: inavolisib (NSC800729), alpelisib (NSC765974), duvelisib (NSC772469), copanlisib (NSC816437), ipatasertib (NSC767898), afuresertib (NSC778305), talazoparib (NSC767125), sapanisertib (NSC764658), selumetinib (NSC741078), tovorafenib (DAY101, NSC766906), vemurafenib (NSC761431), ravoxertinib (NSC781343), sotorasib (NSC818433), MRTX1133 (NSC 836407), abemaciclib (NSC 768073), palbociclib (NSC758247), venetoclax (NSC 766270), SY5609 (NSC837396), enzalutamide (NSC755605), and darolutamide (NSC825331), were obtained from the National Cancer Institute (NCI) Developmental Therapeutics Program Chemical Repository. The FDA-approved anticancer drug set is available from the NCI Developmental Therapeutics Program. […] The stock solutions were prepared in dimethyl sulfoxide (DMSO, Sigma-Aldrich, St. Louis, MO, cat. D2650) at 800-fold the tested concentration and stored at -70 degrees C prior to their use. All drugs and investigational agents were tested over a range starting from a high concentration at or near the clinical Cmax and decreasing in half-log increments. If the clinical Cmax for an agent had not been determined, the highest concentration tested was 10 microM.\nCell Culture. All cells were maintained in an incubator at 37 degrees C and 5% CO2 with 95% humidity. The PDC lines were cultured according to standard operating procedures established by the NCI PDMR (https://pdmr.cancer.gov/sops/default.htm). All PDCs were thawed and cultured in Matrigel-coated flasks prepared with a working solution of 1X Ham's F-12 nutrient mix, without supplementation (Invitrogen, Waltham, MA, cat. 11765054), 100 U/mL penicillin-streptomycin (Invitrogen, cat. 15140122), and 2.5% Matrigel (Corning Inc., Corning, NY, cat. 354248) for the first three passages. The 354836-022-R-J1-PDC, 475296-252-R-J1-PDC, and 997726-040-R-J2-PDC lines were cultured in 6A media, which includes advanced DMEM/F-12 (Thermo Fisher Scientific, cat. 12634028), 10 mM HEPES (Thermo Fisher Scientific, cat. 15630080), 1X GlutaMAX supplement (Thermo Fisher Scientific, cat. 35050061), 0.1 mg/mL primocin (InvivoGen, San Diego, CA, cat. ant-pm-2), 10% defined fetal bovine serum, heat inactivated (HyClone Laboratories Inc., Logan, UT, cat. SH30070.03HI), 50% L-WRN conditioned media (ATCC, cat. CRL-3276), 1.25 mM N-Acetyl-L-cysteine (Sigma-Aldrich, cat. A9165), 10 mM nicotinamide (Sigma-Aldrich, cat. N0636), 1X B-27 supplement (Thermo Fisher Scientific, cat. 17504044), 1X N-2 supplement (Thermo Fisher Scientific, cat. 17502048), and 10 microM Y-27632 dihydrochloride (Tocris Bioscience, Bristol, United Kingdom, cat. 1254). The 624824-186-R-J2-PDC line was cultured in 6C/Colon 1B media, which includes all 6A media components plus 50 ng/mL human EGF recombinant protein (Thermo Fisher Scientific, cat. PHG0311). […]"}
{"molecule": "Cn1ncnc1[C@H]1c2n[nH]c(=O)c3cc(F)cc(c23)N[C@@H]1c1ccc(F)cc1", "note": "+ CC(Nc1ccc2c(c1)OCCn1cc(N3C(=O)OCC3C(F)F)nc1-2)C(N)=O;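 further: spheroids exposed to agents for seven days before readout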;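 on viability, T/C: percent of vehicle DMSO control viability so 100% = untreated growth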", "values": [{"measurement": "IC50", "setting": "second compound 0.00316 µM", "value": "> 100", "unit": "nM"}, {"measurement": "IC50", "setting": "second compound 0.01 µM", "value": "> 100", "unit": "nM"}, {"measurement": "IC50", "setting": "second compound 0.0316 µM", "value": "> 100", "unit": "nM"}, {"measurement": "IC50", "setting": "second compound 0.1 µM", "value": 46.7, "unit": "nM"}, {"measurement": "IC50", "setting": "second compound 0.316 µM", "value": 6.75, "unit": "nM"}, {"measurement": "IC50", "setting": "second compound 1 µM", "value": "< 0.316", "unit": "nM"}, {"measurement": "viability, T/C", "setting": "second compound 0.00316 µM, first compound 0.000316 µM", "value": 97.7, "unit": "%"}, {"measurement": "viability, T/C", "setting": "second compound 0.00316 µM, first compound 0.001 µM", "value": 86.2, "unit": "%"}, {"measurement": "viability, T/C", "setting": "second compound 0.00316 µM, first compound 0.00316 µM", "value": 78.7, "unit": "%"}, {"measurement": "viability, T/C", "setting": "second compound 0.00316 µM, first compound 0.01 µM", "value": 86.3, "unit": "%"}, {"measurement": "viability, T/C", "setting": "second compound 0.00316 µM, first compound 0.0316 µM", "value": 79.2, "unit": "%"}, {"measurement": "viability, T/C", "setting": "second compound 0.00316 µM, first compound 0.1 µM", "value": 57.5, "unit": "%"}, {"measurement": "viability, T/C", "setting": "second compound 0.01 µM, first compound 0.000316 µM", "value": 85.6, "unit": "%"}, {"measurement": "viability, T/C", "setting": "second compound 0.01 µM, first compound 0.001 µM", "value": 89.5, "unit": "%"}, {"measurement": "viability, T/C", "setting": "second compound 0.01 µM, first compound 0.00316 µM", "value": 89, "unit": "%"}, {"measurement": "viability, T/C", "setting": "second compound 0.01 µM, first compound 0.01 µM", "value": 84.5, "unit": "%"}, {"measurement": "viability, T/C", "setting": "second compound 0.01 µM, first compound 0.0316 µM", "value": 72.8, "unit": "%"}, {"measurement": "viability, T/C", "setting": "second compound 0.01 µM, first compound 0.1 µM", "value": 53, "unit": "%"}, {"measurement": "viability, T/C", "setting": "second compound 0.0316 µM, first compound 0.000316 µM", "value": 85.9, "unit": "%"}, {"measurement": "viability, T/C", "setting": "second compound 0.0316 µM, first compound 0.001 µM", "value": 93.6, "unit": "%"}, {"measurement": "viability, T/C", "setting": "second compound 0.0316 µM, first compound 0.00316 µM", "value": 71.2, "unit": "%"}, {"measurement": "viability, T/C", "setting": "second compound 0.0316 µM, first compound 0.01 µM", "value": 64.4, "unit": "%"}, {"measurement": "viability, T/C", "setting": "second compound 0.0316 µM, first compound 0.0316 µM", "value": 72.6, "unit": "%"}, {"measurement": "viability, T/C", "setting": "second compound 0.0316 µM, first compound 0.1 µM", "value": 50.3, "unit": "%"}, {"measurement": "viability, T/C", "setting": "second compound 0.1 µM, first compound 0.000316 µM", "value": 67.9, "unit": "%"}, {"measurement": "viability, T/C", "setting": "second compound 0.1 µM, first compound 0.001 µM", "value": 71.8, "unit": "%"}, {"measurement": "viability, T/C", "setting": "second compound 0.1 µM, first compound 0.00316 µM", "value": 68.7, "unit": "%"}, {"measurement": "viability, T/C", "setting": "second compound 0.1 µM, first compound 0.01 µM", "value": 59.5, "unit": "%"}, {"measurement": "viability, T/C", "setting": "second compound 0.1 µM, first compound 0.0316 µM", "value": 54.3, "unit": "%"}, {"measurement": "viability, T/C", "setting": "second compound 0.1 µM, first compound 0.1 µM", "value": 42.1, "unit": "%"}, {"measurement": "viability, T/C", "setting": "second compound 0.316 µM, first compound 0.000316 µM", "value": 52.8, "unit": "%"}, {"measurement": "viability, T/C", "setting": "second compound 0.316 µM, first compound 0.001 µM", "value": 58.1, "unit": "%"}, {"measurement": "viability, T/C", "setting": "second compound 0.316 µM, first compound 0.00316 µM", "value": 57.6, "unit": "%"}, {"measurement": "viability, T/C", "setting": "second compound 0.316 µM, first compound 0.01 µM", "value": 44, "unit": "%"}, {"measurement": "viability, T/C", "setting": "second compound 0.316 µM, first compound 0.0316 µM", "value": 41, "unit": "%"}, {"measurement": "viability, T/C", "setting": "second compound 0.316 µM, first compound 0.1 µM", "value": 30.8, "unit": "%"}, {"measurement": "viability, T/C", "setting": "second compound 1 µM, first compound 0.000316 µM", "value": 50.6, "unit": "%"}, {"measurement": "viability, T/C", "setting": "second compound 1 µM, first compound 0.001 µM", "value": 45.4, "unit": "%"}, {"measurement": "viability, T/C", "setting": "second compound 1 µM, first compound 0.00316 µM", "value": 50.1, "unit": "%"}, {"measurement": "viability, T/C", "setting": "second compound 1 µM, first compound 0.01 µM", "value": 36, "unit": "%"}, {"measurement": "viability, T/C", "setting": "second compound 1 µM, first compound 0.0316 µM", "value": 31.9, "unit": "%"}, {"measurement": "viability, T/C", "setting": "second compound 1 µM, first compound 0.1 µM", "value": 27.2, "unit": "%"}]}
